Measurements taken from US20050124618A1, “Methods of modulating angiogenesis and cancer cell proliferation” (priority 2003, published 2005).
“Also recorded” adds a separate entry of the source.

Key:
HUVECs [1] = assay: Proliferation of normal HUVECs (comparison with U251); type: cell-based, human; conditions: 10 μM HET0016, 48 hrs; DDMS concentration not given
Procedure: Mean values±SD from three separate experiments, each performed in triplicate, are presented. *** indicates p<0.001 from the respective control values.
Cell Proliferation Assays: Proliferation studies were performed with cultures plated at a density that ensured exponential growth for at least 5 days. Growth medium was generally replaced by serum-free medium 24 hr after plating. Cells were treated with various concentrations of a given compounds for 24 or 48 hr as described in the Methods. […] Organic solvent never exceeded 0.1% of total culture volume. Cells were harvested by exposure to 0.05% trypsin/EDTA and counted using a hemocytometer.

9L gliosarcoma tumors = assay: Ki-67 immunohistochemistry of 9L tumor sections; type: in vivo, rat; conditions: chronic treatment with HET0016
Procedure: Assessment of tumor volume: The formalin fixed brains were placed in Coronal rat brain matrix, and sliced into 3-mm blocks. These blocks were then embedded in paraffin and […] thick sections were prepared. Sections prepared for H&E staining were placed onto uncoated slides. Sections for immunohistochemistry were placed onto positively charged super frosted slides. The serial sections were either stained with H&E for to assess the size of the tumor or immunohistochemically process for Ki-67 antigen to assess for the degree of proliferation.
The sections prepared for immunohistochemistry were deparaffinized by boiling the sections in a citric buffer (pH 6.0) for 10 minutes on a hot plate. The sections were cooled to room temperature, placed in a blocking buffer [2% normal serum, 1% BSA in PBS] for 1 hr, rinsed twice in a wash buffer [0.05 Tween-20 in PBS], blocked with hydrogen peroxide for 10 min and rinsed in wash buffer. The sections were then incubated for 30 min with rabbit polyclonal anti-ki67 antibody (Abcam Inc., Cambridge, Mass.; 1:200 dilution in 1.0% BSA in PBS). The sections were rinsed in wash buffer, incubated with biotinylated Goat anti-rabbit IgG (Vector Laboratories, Inc., Burlingame, Calif.; 1:500 in PBS) for 30 min, and rewashed. […]

HUVECs [2] = assay: HUVECs proliferation assay (CellTiter96 AQueous One); type: cell-based, human
Procedure: HUVECs were seeded onto a 96-well plate at 1×10^4 cells/well. […] Organic solvent concentration never exceeded 0.1% of total culture volume. […] 20 μl of Aqueous One reagent was added to the 100 μl medium in each well. The plates were incubated for 2 hours at 37° C. in a humidified incubator. Absorbance was recorded at 490 nm using a 96-well Bio Kinetics Reader EL340 (Bio-TEK, Winooski, Vt.). The data represent changes in percent absorbance of treated cultures compared with control cells. Three different experiments were carried out, and each point was determined in triplicate.

p42/p44 MAPK = assay: Western blot of phospho-p42/p44 MAPK in U251 cells; type: cell-based, human; conditions: 10 μM HET0016, 24 and 48 hr
Procedure: They were then pelleted by centrifugation at 1,000 g for 5 min at 4° C. Cells were lysed by adding RIPA buffer [20 mM HEPES (pH 7.4), 100 mM NaCl, 1% Nonidet P-40, 0.1% SDS, 1% deoxycholic acid, 10% glycerol, 1 mM EDTA, 1 mM NaVO3, 50 mM NaF, and Protease Inhibitors Set 1 (Calbiochem, La Jolla, Calif.)]. Plates were then scraped and cells collected in a 1.5-ml centrifuge tube, followed by incubation on ice for 30 min. Homogenates of the cell suspension were centrifuged for 10 min at 14,000 g and 4° C.; the pellets were discarded and protein concentrations in the supernatant determined by bicinchoninic acid (BCA) protein assay.
Typically, 20 μg of protein was separated on a 14% Tris-glycine gel (Invitrogen) and electroblotted on a PVDF membrane (Biotrace, Bothell, Wash.). Membranes were blocked for 1 h at room temperature with blocking buffer [0.2% I-Block reagent (Tropix, Bedford, Mass.), 0.1% Tween-20 in […]] before incubation with primary antibodies in blocking buffer (overnight at 4° C.). […] Both phospho-tyrosine (Y102) and phospho-serine/threonine-Pro MPM2 were detected using a 1:2000 dilution of the corresponding antibodies, whereas phospho-p44/p42MAPK and phospho-SAPK/JNK were detected using 1:1000 antibody dilutions. […]

`CCCCc1ccc(N=CNO)c(C)c1` [HET0016, N-hydroxy-N′-(4-butyl-2 methylphenyl) formamidine] was tested, and the “effect on basal growth or proliferation of normal HUVECs” value (HUVECs [1]) was “Neither DDMS or HET0016 had any effect; also recorded: had no effect on the basal growth or proliferation; also recorded: had no effect on the proliferation”, the “number of mitotic (Ki67-positive) cells in the 9L tumor” value (9L gliosarcoma tumors) was “reduction in mitosis; also recorded: greatly reduced the number of mitotic cells” and the “effect on the proliferative response of HUVECs to VEGF” value (HUVECs [2]; 250 ng/ml VEGF + 10 μM HET0016, 24 hours) was “abolished; also recorded: blocked the known proliferative response to VEGF; also recorded: blocks the mitogenic activity of VEGF”. For the same compound, the “effect on basal proliferation rate of HUVECs” value (HUVECs [2]; 10 μM HET0016) was “did not alter basal proliferation rate” and the “phosphorylation of p42/p44 MAPK” value (p42/p44 MAPK) was “specifically inhibited phosphorylation”.
